Reference: patent publication US9717748B2, “Compositions and methods for treating an infection” (CMPD LICENSING, LLC, priority 2015, dated 2017)

How the values were obtained:
Aspergillus fumigatus = assay: Expected efficacy of antifungal agents
Cryptococcus neoformans = assay: Expected efficacy of antifungal agents
Aspergillus flavus = assay: Expected efficacy of antifungal agents
Enterococcus faecalis = assay: Expected efficacy of antibiotic agents; conditions: Gram: pos
[1] = test system: Staphylococcus epidermidis; assay: Expected efficacy of antibiotic agents; conditions: Gram: pos
Chlamydia pneumoniae = assay: Expected efficacy of antibiotic agents; conditions: Gram: n/a
Moraxella catarrhalis = assay: Expected efficacy of antibiotic agents; conditions: Gram: neg
Providencia stuartii = assay: Expected efficacy of antibiotic agents; conditions: Gram: neg
Acinetobacter baumannii = assay: Expected efficacy of antibiotic agents; conditions: Gram: neg
Proteus mirabilis = assay: Expected efficacy of antibiotic agents; conditions: Gram: neg
Haemophilus ducreyi = assay: Expected efficacy of antibiotic agents; conditions: Gram: neg
Pseudomonas aeruginosa = assay: Expected efficacy of antibiotic agents; conditions: Gram: neg
[2] = test system: Klebsiella (Calymmato-bacterium) granulomatis; assay: Expected efficacy of antibiotic agents; conditions: Gram: neg
Francisella tularensis = conditions: Gram: neg
Citrobacter diversus = assay: Expected efficacy of antibiotic agents; conditions: Gram: neg
Brucella species = conditions: Gram: neg
Yersinia pestis = conditions: Gram: neg
Providencia rettgeri = assay: Expected efficacy of antibiotic agents; conditions: Gram: neg
Campylobacter jejuni = assay: Expected efficacy of antibiotic agents; conditions: Gram: neg
Legionella pneumophila = conditions: Gram: neg
Proteus vulgaris = assay: Expected efficacy of antibiotic agents; conditions: Gram: neg
Enterococcus faecium = assay: Expected efficacy of antibiotic agents; conditions: Gram: pos
Chlamydia trachomatis = assay: Expected efficacy of antibiotic agents; conditions: Gram: n/a
Morganella morganii = assay: Expected efficacy of antibiotic agents; conditions: Gram: neg
Chlamydia psittaci = conditions: Gram: n/a
Citrobacter freundii = assay: Expected efficacy of antibiotic agents; conditions: Gram: neg
Serratia marcescens = assay: Expected efficacy of antibiotic agents; conditions: Gram: neg
[3] = test system: Haemophilus parainfluenzae; assay: Expected efficacy of antibiotic agents; conditions: Gram: neg
Acinetobacter lwoffii = assay: Expected efficacy of antibiotic agents; conditions: Gram: neg
[4] = test system: Staphylococcus aureus (MSSA); assay: Expected efficacy of antibiotic agents; conditions: Gram: pos
Neisseria gonorrhoeae = assay: Expected efficacy of antibiotic agents; conditions: Gram: neg
Klebsiella pneumoniae = assay: Expected efficacy of antibiotic agents; conditions: Gram: neg
Corynebacterium jeikeium = assay: Expected efficacy of antibiotic agents; conditions: Gram: pos
Salmonella typhi = assay: Expected efficacy of antibiotic agents; conditions: Gram: neg
Shigella flexneri = assay: Expected efficacy of antibiotic agents; conditions: Gram: neg
Bacteroides fragilis = assay: Expected efficacy of antibiotic agents; conditions: Gram: anaer
Shigella sonnei = assay: Expected efficacy of antibiotic agents; conditions: Gram: neg
[5] = test system: Methicillin resistant staphaureus (MRSA); assay: Expected efficacy of antibiotic agents; conditions: Gram: pos
Shigella dysenteriae = assay: Expected efficacy of antibiotic agents; conditions: Gram: neg
[6] = test system: Acinetobacter calcoaceticus; assay: Expected efficacy of antibiotic agents; conditions: Gram: neg
Pseudomonas fluorescens = assay: Expected efficacy of antibiotic agents; conditions: Gram: neg
Clostridium difficile = assay: Expected efficacy of antibiotic agents; conditions: Gram: anaer
Enterobacter cloacae = assay: Expected efficacy of antibiotic agents; conditions: Gram: neg
Enterobacter aerogenes = assay: Expected efficacy of antibiotic agents; conditions: Gram: neg
Clostridium perfringens = conditions: Gram: anaer
Streptococcus pyogenes = assay: Expected efficacy of antibiotic agents; conditions: Gram: pos
Klebsiella oxytoca = assay: Expected efficacy of antibiotic agents; conditions: Gram: neg
Escherichia coli = assay: Expected efficacy of antibiotic agents; conditions: Gram: neg
Streptococcus agalactiae = assay: Expected efficacy of antibiotic agents; conditions: Gram: pos
Enterobacter sakazakii = assay: Expected efficacy of antibiotic agents; conditions: Gram: neg
Mycoplasma pneumoniae = assay: Expected efficacy of antibiotic agents; conditions: Gram: n/a
Diphtheroids = assay: Expected efficacy of antibiotic agents; conditions: Gram: pos
Vibrio cholerae = assay: Expected efficacy of antibiotic agents; conditions: Gram: neg
[7] = test system: Viridans group streptococci; assay: Expected efficacy of antibiotic agents; conditions: Gram: pos
[8] = test system: Corynebacterium urealyticum; assay: Expected efficacy of antibiotic agents; conditions: Gram: pos
Peptostreptococcus = assay: Expected efficacy of antibiotic agents; conditions: Gram: pos
Bordetella pertussis = assay: Expected efficacy of antibiotic agents; conditions: Gram: neg
Rickettsiae = conditions: Gram: neg

OC(Cn1cncn1)(Cn1cncn1)c1ccc(F)cc1F [Fluconazole]
Expected efficacy against Aspergillus fumigatus (Aspergillus fumigatus): yes
Expected efficacy against Coccidioides immitis (Coccidioides immitis): yes
Expected efficacy against Cryptococcus neoformans (Cryptococcus neoformans): yes
Expected efficacy against Aspergillus flavus (Aspergillus flavus): yes

C[C@H]1c2cccc(O)c2C(=O)C2=C(O)[C@]3(O)C(=O)C(C(N)=O)=C(O)[C@@H](N(C)C)[C@@H]3[C@@H](O)[C@@H]21 [Doxycyline]
Expected efficacy against Enterococcus faecalis (Enterococcus faecalis): no
Expected efficacy against Staphylococcus epidermidis [1]: yes
Expected efficacy against Chlamydia pneumoniae (Chlamydia pneumoniae): yes
Expected efficacy against Moraxella catarrhalis (Moraxella catarrhalis): yes
Expected efficacy against Providencia stuartii (Providencia stuartii): no
Expected efficacy against Acinetobacter baumannii (Acinetobacter baumannii): no
Expected efficacy against Proteus mirabilis (Proteus mirabilis): no
Expected efficacy against Haemophilus ducreyi (Haemophilus ducreyi): yes
Expected efficacy against Pseudomonas aeruginosa (Pseudomonas aeruginosa): no
Expected efficacy against Klebsiella (Calymmato-bacterium) granulomatis [2]: yes
Expected efficacy against Francisella tularensis (Francisella tularensis): yes
Expected efficacy against Citrobacter diversus (Citrobacter diversus): no
Expected efficacy against Brucella species (Brucella species): yes
Expected efficacy against Yersinia pestis (Yersinia pestis): yes
Expected efficacy against Providencia rettgeri (Providencia rettgeri): no
Expected efficacy against Campylobacter jejuni (Campylobacter jejuni): yes
Expected efficacy against Legionella pneumophila (Legionella pneumophila): yes
Expected efficacy against Proteus vulgaris (Proteus vulgaris): no
Expected efficacy against Enterococcus faecium (Enterococcus faecium): no
Expected efficacy against Chlamydia trachomatis (Chlamydia trachomatis): yes
Expected efficacy against Morganella morganii (Morganella morganii): no
Expected efficacy against Chlamydia psittaci (Chlamydia psittaci): yes
Expected efficacy against Citrobacter freundii (Citrobacter freundii): no
Expected efficacy against Serratia marcescens (Serratia marcescens): no
Expected efficacy against Haemophilus parainfluenzae [3]: yes
Expected efficacy against Acinetobacter lwoffii (Acinetobacter lwoffii): no

O=C(O)c1cn(C2CC2)c2cc(N3CCNCC3)c(F)cc2c1=O [Ciprofloxacin]
Expected efficacy against Staphylococcus epidermidis [1]: yes
Expected efficacy against Chlamydia pneumoniae (Chlamydia pneumoniae): yes
Expected efficacy against Staphylococcus aureus (MSSA) [4]: no
Expected efficacy against Neisseria gonorrhoeae (Neisseria gonorrhoeae): yes
Expected efficacy against Moraxella catarrhalis (Moraxella catarrhalis): yes
Expected efficacy against Providencia stuartii (Providencia stuartii): yes
Expected efficacy against Proteus mirabilis (Proteus mirabilis): yes
Expected efficacy against Klebsiella pneumoniae (Klebsiella pneumoniae): yes
Expected efficacy against Corynebacterium jeikeium (Corynebacterium jeikeium): no
Expected efficacy against Salmonella typhi (Salmonella typhi): yes
Expected efficacy against Pseudomonas aeruginosa (Pseudomonas aeruginosa): yes
Expected efficacy against Francisella tularensis (Francisella tularensis): yes
Expected efficacy against Shigella flexneri (Shigella flexneri): yes
Expected efficacy against Yersinia pestis (Yersinia pestis): yes
Expected efficacy against Providencia rettgeri (Providencia rettgeri): yes
Expected efficacy against Bacteroides fragilis (Bacteroides fragilis): no
Expected efficacy against Shigella sonnei (Shigella sonnei): yes
Expected efficacy against Methicillin resistant staphaureus (MRSA) [5]: no
Expected efficacy against Campylobacter jejuni (Campylobacter jejuni): yes
Expected efficacy against Legionella pneumophila (Legionella pneumophila): yes
Expected efficacy against Enterococcus faecium (Enterococcus faecium): no
Expected efficacy against Citrobacter freundii (Citrobacter freundii): yes
Expected efficacy against Shigella dysenteriae (Shigella dysenteriae): yes
Expected efficacy against Haemophilus parainfluenzae [3]: yes

Azithromycin
Expected efficacy against Enterococcus faecalis (Enterococcus faecalis): no
Expected efficacy against Acinetobacter calcoaceticus [6]: no
Expected efficacy against Staphylococcus epidermidis [1]: yes
Expected efficacy against Chlamydia pneumoniae (Chlamydia pneumoniae): yes
Expected efficacy against Staphylococcus aureus (MSSA) [4]: yes
Expected efficacy against Pseudomonas fluorescens (Pseudomonas fluorescens): no
Expected efficacy against Moraxella catarrhalis (Moraxella catarrhalis): yes
Expected efficacy against Providencia stuartii (Providencia stuartii): no
Expected efficacy against Acinetobacter baumannii (Acinetobacter baumannii): no
Expected efficacy against Proteus mirabilis (Proteus mirabilis): no
Expected efficacy against Clostridium difficile (Clostridium difficile): no
Expected efficacy against Klebsiella pneumoniae (Klebsiella pneumoniae): no
Expected efficacy against Corynebacterium jeikeium (Corynebacterium jeikeium): no
Expected efficacy against Enterobacter cloacae (Enterobacter cloacae): no
Expected efficacy against Pseudomonas aeruginosa (Pseudomonas aeruginosa): no
Expected efficacy against Klebsiella (Calymmato-bacterium) granulomatis [2]: no
Expected efficacy against Francisella tularensis (Francisella tularensis): no
Expected efficacy against Enterobacter aerogenes (Enterobacter aerogenes): no
Expected efficacy against Citrobacter diversus (Citrobacter diversus): no
Expected efficacy against Clostridium perfringens (Clostridium perfringens): no
Expected efficacy against Brucella species (Brucella species): no
Expected efficacy against Providencia rettgeri (Providencia rettgeri): no
Expected efficacy against Bacteroides fragilis (Bacteroides fragilis): no
Expected efficacy against Streptococcus pyogenes (Streptococcus pyogenes): yes
Expected efficacy against Methicillin resistant staphaureus (MRSA) [5]: no
Expected efficacy against Campylobacter jejuni (Campylobacter jejuni): yes
Expected efficacy against Legionella pneumophila (Legionella pneumophila): yes
Expected efficacy against Proteus vulgaris (Proteus vulgaris): no
Expected efficacy against Enterococcus faecium (Enterococcus faecium): no
Expected efficacy against Chlamydia trachomatis (Chlamydia trachomatis): yes
Expected efficacy against Klebsiella oxytoca (Klebsiella oxytoca): no
Expected efficacy against Morganella morganii (Morganella morganii): no
Expected efficacy against Escherichia coli (Escherichia coli): no
Expected efficacy against Streptococcus agalactiae (Streptococcus agalactiae): yes
Expected efficacy against Enterobacter sakazakii (Enterobacter sakazakii): no
Expected efficacy against Chlamydia psittaci (Chlamydia psittaci): yes
Expected efficacy against Citrobacter freundii (Citrobacter freundii): no
Expected efficacy against Serratia marcescens (Serratia marcescens): no
Expected efficacy against Mycoplasma pneumoniae (Mycoplasma pneumoniae): yes
Expected efficacy against Acinetobacter lwoffii (Acinetobacter lwoffii): no

CO/N=C(\C(=O)N[C@@H]1C(=O)N2C(C(=O)O)=C(CSc3nc(=O)c(=O)[nH]n3C)CS[C@H]12)c1csc(N)n1 [Ceftriaxone]
Expected efficacy against Enterococcus faecalis (Enterococcus faecalis): no
Expected efficacy against Acinetobacter calcoaceticus [6]: no
Expected efficacy against Staphylococcus epidermidis [1]: yes
Expected efficacy against Chlamydia pneumoniae (Chlamydia pneumoniae): no
Expected efficacy against Diphtheroids (Diphtheroids): no
Expected efficacy against Staphylococcus aureus (MSSA) [4]: yes
Expected efficacy against Neisseria gonorrhoeae (Neisseria gonorrhoeae): yes
Expected efficacy against Moraxella catarrhalis (Moraxella catarrhalis): yes
Expected efficacy against Providencia stuartii (Providencia stuartii): yes
Expected efficacy against Acinetobacter baumannii (Acinetobacter baumannii): no
Expected efficacy against Proteus mirabilis (Proteus mirabilis): yes
Expected efficacy against Clostridium difficile (Clostridium difficile): no
Expected efficacy against Vibrio cholerae (Vibrio cholerae): no
Expected efficacy against Klebsiella pneumoniae (Klebsiella pneumoniae): yes
Expected efficacy against Corynebacterium jeikeium (Corynebacterium jeikeium): no
Expected efficacy against Enterobacter cloacae (Enterobacter cloacae): yes
Expected efficacy against Haemophilus ducreyi (Haemophilus ducreyi): yes
Expected efficacy against Viridans group streptococci [7]: yes
Expected efficacy against Salmonella typhi (Salmonella typhi): yes
Expected efficacy against Pseudomonas aeruginosa (Pseudomonas aeruginosa): no
Expected efficacy against Klebsiella (Calymmato-bacterium) granulomatis [2]: yes
Expected efficacy against Francisella tularensis (Francisella tularensis): no
Expected efficacy against Shigella flexneri (Shigella flexneri): yes
Expected efficacy against Corynebacterium urealyticum [8]: no
Expected efficacy against Yersinia pestis (Yersinia pestis): no
Expected efficacy against Providencia rettgeri (Providencia rettgeri): yes
Expected efficacy against Bacteroides fragilis (Bacteroides fragilis): yes
Expected efficacy against Shigella sonnei (Shigella sonnei): yes
Expected efficacy against Peptostreptococcus (Peptostreptococcus): yes
Expected efficacy against Streptococcus pyogenes (Streptococcus pyogenes): yes
Expected efficacy against Methicillin resistant staphaureus (MRSA) [5]: no
Expected efficacy against Campylobacter jejuni (Campylobacter jejuni): no
Expected efficacy against Legionella pneumophila (Legionella pneumophila): no
Expected efficacy against Enterococcus faecium (Enterococcus faecium): no
Expected efficacy against Chlamydia trachomatis (Chlamydia trachomatis): no
Expected efficacy against Streptococcus agalactiae (Streptococcus agalactiae): yes
Expected efficacy against Enterobacter sakazakii (Enterobacter sakazakii): yes
Expected efficacy against Bordetella pertussis (Bordetella pertussis): no
Expected efficacy against Rickettsiae (Rickettsiae): no
Expected efficacy against Chlamydia psittaci (Chlamydia psittaci): no
Expected efficacy against Citrobacter freundii (Citrobacter freundii): yes
Expected efficacy against Mycoplasma pneumoniae (Mycoplasma pneumoniae): no
Expected efficacy against Shigella dysenteriae (Shigella dysenteriae): yes
Expected efficacy against Haemophilus parainfluenzae [3]: yes
Expected efficacy against Acinetobacter lwoffii (Acinetobacter lwoffii): no
